In ChEMBL document CHEMBL1144724, “Secondary metabolites of Cinnamosma madagascariensis and their alpha-glucosidase inhibitory properties” (J Nat Prod, 2008):
Activity calls are given as the source filed them. The calls are words filed in the database; no cut-off is given here.

Test: Inhibition of alpha-glucosidase at 0.1 mg/mL relative to 1-deoxynojirimycin

| Compound | inhibition [%] | Activity |
| --- | --- | --- |
| CC(=O)O[C@@H]1[C@@H](Cl)C2=C(COC2=O)[C@@]2(C)CCCC(C)(C)[C@H]12 | 28.1 | – |
| CC1(C)CCC[C@]2(C)[C@@H](C=O)C(C=O)=CC[C@@H]12 | 2.1 | – |
| CC(=O)O[C@@H]1C=C(C2O[C@@H]3OC(O)C4=C[C@@H](OC(C)=O)[C@H]5C(C)(C)CCC[C@]5(C)[C@]43O2)[C@](O)(C=O)[C@@]2(C)CCCC(C)(C)[C@H]12 (stereo partly drawn) | 83.7 | – |
| CC(=O)O[C@@H]1[C@@H](O)C2=C(C(=O)OC2)[C@@]2(C)CCCC(C)(C)[C@H]12 | 46.2 | – |
| CC(=O)O[C@@H]1[C@@H](O)C2=C(COC2=O)[C@@]2(C)CCCC(C)(C)[C@H]12 | 14.9 | – |

Further lines, results first:

| inhibition [%] | Activity | Compound |
| --- | --- | --- |
| 20 | – | CC(=O)O[C@@H]1C=C2C(=O)OC[C@]2(O)[C@@]2(C)CCCC(C)(C)[C@H]12 |
| – | inactive | CO[C@@H]1O[C@@H](OC)[C@@]2(O)C1=C[C@@H](OC(C)=O)[C@H]1C(C)(C)CCC[C@@]12C |
| 7.2 | – | CC1(C)CCC[C@@]2(C)[C@H]1[C@H](O)C=C1C(=O)OC[C@@]12O |
